Results on three compounds are retold here after patent US20210371385A1, “POLYMORPHIC AND AMORPHOUS FORMS OF ISOQUINOLINONE AND METHODS OF USE THEREOF” (Sojournix, Inc., priority 2018, published 2021).

In brackets after ≈: the same amount, converted by molar mass. Several values for one entry are separate records, joined by “and”; a condition that tells them apart may be missing. Equal entries are not always repeated. Entries after “also recorded” stand apart in the source; their conditions may differ.

What all share (assay type): physicochemical
A short description of data set [1]: Solubility in water and simulated fluids (FaSSIF, FaSSGF) at 37 °C. As to conditions: for Solubility / solubility at 24 h: 37 °C; for Solubility in FaSSIF: fasted state simulated intestinal fluid; for solubility at 24 h: thermodynamic from solid. An excerpt:
The solids were slurried in the respective solution for 24 hrs then the liquid isolated by syringe filtration for analysis by HPLC. The data are summarized in Table 19; the solubility of all forms in all solutions is on the microgram scale. Essentially, none of these are substantially advantageous over the other ones in terms of equilibrium solubility.

Data set [2] can be described thus: Solid form stability at ambient conditions by XRPD. The settings on record: for Solid form stability: ambient conditions / room temperature, XRPD.
The nature of data set [3]: Stability in high humidity (40 °C/75% RH, XRPD). The settings on record: one week. How it is done: Patterns α (L100142-37-5), β (L100142-1-1) and free flowing amorphous solid (L100142-19-1) SJB-01 were exposed to a 40° C./75% RH environment for one week.
Data set [4] in a line: Dynamic vapor sorption (DVS). How it is done:
Pattern β was analyzed using DVS with two sorption/desorption cycles. The solid reversibly picked-up about 0.12% between 2-95% relative humidity at 25° C.
Dynamic Vapor Sorption (DVS) was done using a DVS Intrinsic 1. The sample is loaded into a sample pan and suspended from a microbalance. A typical sample mass for DVS measurement is 25 mg. Nitrogen gas bubbled through distilled water provides the desired relative humidity. A typical measurement comprises the steps:
2. 50% to 2%. (50%, 40%, 30%, 20%, 10% and 2%)-Hold minimum of 5 mins and maximum of 60 minutes at each humidity. The pass criteria is less than 0.002% change.
3. 2% to 95% (2%, 10%, 20%, 30%, 40%, 50%, 60%, 70%, 80%, 90%, 95%)-Hold minimum of 5 mins and maximum of 60 minutes at each humidity. The pass criteria is less than 0.002% change.
4. 95% to 2% (95%, 80%, 70%, 60%, 50%, 40%, 30%, 20%, 10%, 2%)-Hold minimum of 5 mins and maximum of 60 minutes at each humidity. The pass criteria is less than 0.002% change.
5. 2% to 50% (2%, 10%, 20%, 30%, 40%, 50%)-Hold minimum of 5 mins and maximum of 60 minutes at each humidity. The pass criteria is less than 0.002% change.

Data set [5] is described as follows: Thermodynamic equilibrium aqueous solubility. The settings on record: pH 7.4.
Data set [6] in a line: Solubility in vehicles/excipients for in vivo and toxicological studies. The settings on record: for Maximum single dose in solubilized form: dogs, 100% PEG 400, maximum volume 1-2 ml/kg; for Maximum dose in solubilized form, 100% PEG 400 / Maximum dose in solubilized form, Gelucire:PEG 400 90:10: rats; for Maximum dose in solubilized form, 100% PEG 400: 5 ml/kg is maximum volume dose; for Maximum dose in solubilized form, Gelucire:PEG 400 90:10: 10 ml/kg is maximum volume dose. How it is done:
In addition, the solubility of SJB-01 was investigated in a large number of vehicles for use in in vivo pharmacological studies, as well as toxicological evaluation of the compound.
Formulations for toxicological evaluation of SJB-01 were considered. The highest solubility was obtained with 100% PEG 400 and a mixture of Gelucire and PEG 400. Since a formulation with Gelucire:PEG required increased handling time, including dosing at ˜45° C., 100% PEG 400 was chosen for formulation purpose in the early toxicological evaluation including mini-MTD (maximum tolerated dose) and a 14 days toxicological dosing study. The maximum dose reached was 140 mg/kg-the highest possible dose achievable with PEG 400 as vehicle. […] From a formulation perspective, this can only be done by using Gelucire:PEG as a vehicle, under the assumption that a solution will lead to a higher bioavailability than dosing the compound in a PEG 400 suspension. In the table below, the maximum dose of SJB-01 given on a solubilized form is provided, taking into account the tolerated dose of the vehicle as well.

A short description of data set [7]: Intrinsic Dissolution Rate (IDR). As to conditions: 0.001 M HCl pH 3.0; pressed tablet. How it is done:
The Intrinsic Dissolution Rate (IDR) was calculated for a beta polymorph form of SJB-01. A tablet of the compound was pressed and put into a dissolution chamber. It was subsequently measured how fast the substance was dissolved from the surface into the solvent. Initially, the experiment was performed in a standard buffer (0.001 M HCl pH 3.0), reflecting the stomach conditions at fastened state.
Due to the high impact of bile components on solubilisation of SJB-01, IDR was performed in FeSSIF media, reflecting the fed-state in humans.

Data set [8] is described as follows: Solubility in bio-relevant media. How it is done:
The solubility of the beta polymorph form of SJB-01 was further examined in bio-relevant media. The fasted-state small intestinal fluid (FaSSIF) contained 3 mM sodium taurocholate (bile acid), 0.75 mM lecithin (phosphorlipid) and phosphate buffer to maintain a pH of 6.0. The fed-state small intestinal fluid (FeSSIF) contained 5-fold higher concentration of sodium taurocholate and lecithin and thus higher capacity for micellar solubilization of the compound. The pH in the FeSSIF buffer was maintained to 5.0 with acetate buffer.

The nature of data set [9]: Solubility in buffered solutions vs pH at 37 °C (HPLC). As to conditions: aqueous buffers, aqueous buffer, thermodynamic from solid; about 37 °C; read-out: Solubility in buffered solution (range). How it is done: Aqueous buffers between pH 1.3 and 7.4 (13 total) were prepared and 3 mL added to about 15 mg of SJB-01 (L100149-44-1, jet-milled). These slurries were stirred on a hot-plate at 37° C. for 24 hours. Sonication and vortexting was employed within the first 2 hours of stirring to ensure thorough mixing and wetting of the solids as there was a clear tendency for them to clump and float at the liquid surface. After sonication and vortexing there was substantial solids suspended in solution (slurry) along with the solids that floated on top. At 24 hours, the samples were collected by syringe filtration of about 2 mL of solution. The first 1 mL of solution that passed through the filter was discarded and the second 0.5-1 mL of solution was used for HPLC analysis. The samples were injected into HPLC without dilution.
SJB-01 (L100149-44-1) was weighed directly into volumetric flasks and filled to volume with ACN:water (6:4 vol.) to build a calibration curve. […] Details for the HPLC method used are given in Table 34; these follow the parameters used for previous dissolution study.

[10] abbreviates: about 37 °C, listed as amorphous form.
[11] abbreviates: about 37 °C, listed as beta form.

A word on the Solubility: it is the dissolved amount per volume that the medium holds. Low readings indicate little dissolved substance, high ones much dissolved substance. For the compound `CCNn1c(C)c(C(=O)N[C@H](c2ccccc2)C2CC2)c2cccc(F)c2c1=O` [Amorphous, 2-ethylamino-8-fluoro-3-methyl-1-oxo-1,2-dihydro-isoquinoline-4-carboxylic acid ((S)-cyclopropyl-phenyl-methyl)-amide], the Solubility in data set [1] (FaSSGF, 24 hrs) is 6 µg/mL (≈ 15.2 µM); in [1] (FaSSIF, 24 hrs) it was 18 µg/mL (≈ 45.7 µM); in data set [1] (Water, 24 hrs), 5 µg/mL (≈ 12.7 µM). For the same compound, the “Solubility in water and simulated fluids (range)” value in data set [1] (setting [10]) is 5 to 18 µg/mL. For the same compound, in [1] (fasted state simulated gastric fluid, about 37 °C, listed as amorphous form), the “Solubility in FaSSGF” value is 6 µg/mL (≈ 15.2 µM). For the same compound, in data set [1] (setting [10]), the “Solubility in FaSSIF” value was 18 µg/mL (≈ 45.7 µM). The same compound had a Solubility in water in data set [1] (water, about 37 °C, listed as amorphous form) of 5 µg/mL (≈ 12.7 µM). Further, in data set [2] (listed as powdered amorphous freebase), the Solid form stability entry is “still showed an amorphous pattern”. For the same compound, the “Time amorphous form remained stable” value in data set [2] (ambient environment) is listed as “at least 17 days”. Further, the “Solid form by XRPD after humidity exposure” value (shortened to “Solid form by XRPD”) in [3] (listed as amorphous solid) was “converted considerably to Pattern β”.

What is called solubility is the dissolved amount per volume that the medium holds. For orientation: thermodynamic solubility means the concentration in solution at equilibrium with solid. In the case of `CCNn1c(C)c(C(=O)N[C@H](c2ccccc2)C2CC2)c2cccc(F)c2c1=O` [Pattern α, 2-ethylamino-8-fluoro-3-methyl-1-oxo-1,2-dihydro-isoquinoline-4-carboxylic acid ((S)-cyclopropyl-phenyl-methyl)-amide], the Solubility is 7 µg/mL (≈ 17.8 µM) in [1] (FaSSGF, 24 hrs) and 8 µg/mL (≈ 20.3 µM) in [1] (FaSSIF, 24 hrs). The solubility at 24 h in data set [1] (FaSSGF, fassgf or other biorelevant, fasted state simulated gastric fluid, about 37 °C, read-out: Solubility in FaSSGF) is 7 µg/mL (≈ 17.8 µM); in data set [1] (water, water, water, about 37 °C, read-out: Solubility in water) it was 6 µg/mL (≈ 15.2 µM); in data set [1] (water, FaSSIF and FaSSGF, about 37 °C, read-out: Solubility in water and simulated fluids (range)) it was 6 to 8 µg/mL (≈ 15.2 to 20.3 µM). For the same compound, the “Solubility in FaSSIF” value in data set [1] (about 37 °C, listed as alpha form) is 8 µg/mL (≈ 20.3 µM). For the same compound, the “Moisture pick-up by DVS” value in data set [4] (2-95% relative humidity, 25 °C) is listed as “about 0.6%”. The Solid form stability result in [2] was “not stable; also recorded: less stable than Pattern β”. In addition, in [5] (aqueous medium, aqueous buffer, thermodynamic from solid), the thermodynamic solubility is roughly 14 µg/mL (≈ 35.6 µM). Besides, in [3], the “Solid form by XRPD” value was “converted considerably to Pattern β”. For the same compound, the “Solubility in 100% PEG 400” value in [6] is given as 32 mg base/ml. The “Solubility in Gelucire:PEG 400 90:10” value in data set [6] was determined as 40 mg base/ml. In addition, the “Maximum single dose in solubilized form” value in data set [6] (listed as α-form) was in the range of 28 to 56 mg/kg. Further, the “Maximum dose in solubilized form, 100% PEG 400” value in data set [6] (listed as α-form) was found to be 140 mg/kg. The “Maximum dose in solubilized form, Gelucire:PEG 400 90:10” value in data set [6] (listed as α-form) stood at 360 mg/kg.

Regarding `CCNn1c(C)c(C(=O)N[C@H](c2ccccc2)C2CC2)c2cccc(F)c2c1=O` [Pattern β, 2-ethylamino-8-fluoro-3-methyl-1-oxo-1,2-dihydro-isoquinoline-4-carboxylic acid ((S)-cyclopropyl-phenyl-methyl)-amide], the solubility at 24 h in [1] (FaSSGF (fasted state simulated gastric fluid), fassgf or other biorelevant, FaSSGF, 24 hrs, read-out: Solubility) was 6 µg/mL (≈ 15.2 µM). The same compound registered a Solubility in data set [1] (FaSSIF, 24 hrs) of 8 µg/mL (≈ 20.3 µM). For the same compound, in data set [1] (setting [11]), the “Solubility in water and simulated fluids (range)” value was 5 to 8 µg/mL and 6 to 10 µg/mL; the “Solubility in FaSSIF” value was 8 µg/mL (≈ 20.3 µM). Moreover, the solubility at 24 h in data set [1] (water, water, Water, 24 hrs, read-out: Solubility) is 5 µg/mL (≈ 12.7 µM). Moreover, in data set [4] (DVS, two sorption/desorption cycles), the Hygroscopicity entry is recorded as “not hygroscopic”. Further, the Solid form stability entry in data set [2] is on record as “most stable polymorph”. Moreover, in [5], the Thermodynamic equilibrium solubility was roughly 8 μg base/ml. Besides, in data set [7], the “Intrinsic Dissolution Rate (IDR)” value is on record as 0.002 mg/cm^2·min. In addition, the “Solid form by XRPD” value in data set [3] is given as “remained unchanged”. For the same compound, in [6], the “Solubility in 100% PEG 400” value turned out to be 22 mg base/ml and the “Solubility in Gelucire:PEG 400 90:10” value is given as 26 mg base/ml. In data set [6] (listed as β-form), the “Maximum single dose in solubilized form” value was 20 to 40 mg/kg; the “Maximum dose in solubilized form, 100% PEG 400” value amounted to 100 mg/kg; the “Maximum dose in solubilized form, Gelucire:PEG 400 90:10” value worked out at 230 mg/kg. Moreover, the “Solubility in bio-relevant media” value in data set [8] (0.001M HCl pH 3.0) is reported as 8 μg base/ml. For the same compound, in data set [8] (FaSSIF, pH 6.0), the “Solubility in bio-relevant media” value is recorded as 11 μg base/ml. In data set [8] (FeSSIF, pH 5.0), the “Solubility in bio-relevant media” value stood at 19 μg base/ml. The solubility at 24 h in data set [9] lay within 6.4 to 9.8 µg/mL (≈ 16.3 to 24.9 µM).
